Columns and labels:
DIPGX29 [1] = H3.3 K27M diffuse intrinsic pontine glioma line; test: EC50 (inflection of fitted growth-inhibition curve) (log10 M)
Summary of the method: (§1)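 Compounds were delivered by pin tool as a 10-point threefold dilution series with a mean top concentration of 35 μM, in triplicate, to patient-derived pHGG/DIPG cell lines and astrocyte controls growing on 1% Geltrex-coated 384-well plates. Incubation lasted 7 days, or 3 days for iAstro, at 37 °C with 5% CO2. EC50 and maximal response (yFin) come from the three- or four-parameter log-logistic fit with the lowest AICc, applied to pooled, log2-transformed CellTiter-Glo luminescence normalised per plate to % activity between solvent (negative) and positive control wells.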

DIPGX37 [2] = H3.3 K27M diffuse intrinsic pontine glioma line; test: as above
Summary of the method: as §1

DIPGX7 [3] = H3.3 K27M diffuse intrinsic pontine glioma line; test: as above
Summary of the method: as §1

DIPGX9 [4] = diffuse intrinsic pontine glioma line; test: as above
Summary of the method: as §1

HABS [5] = astrocyte control; test: as above
Summary of the method: as §1

HGGX39 [6] = paediatric high-grade glioma line; test: as above
Summary of the method: as §1

HGGX6 [7] = H3.3 G34R paediatric high-grade glioma line; test: as above
Summary of the method: as §1

SUDIPGIV [8] = diffuse intrinsic pontine glioma line; test: as above
Summary of the method: as §1

SUDIPGVI [9] = diffuse intrinsic pontine glioma line; test: as above
Summary of the method: as §1

SUDIPGXIII [10] = diffuse intrinsic pontine glioma line; test: as above
Summary of the method: as §1

SUDIPGXIX [11] = diffuse intrinsic pontine glioma line; test: as above
Summary of the method: as §1

SUDIPGXVII [12] = diffuse intrinsic pontine glioma line; test: as above
Summary of the method: as §1

DIPGX29 [13] = test: maximal growth inhibition (yFin) relative to DMSO / staurosporine; higher = more efficacious
Summary of the method: as §1

DIPGX37 [14] = test: as above
Summary of the method: as §1

DIPGX7 [15] = test: as above
Summary of the method: as §1

DIPGX9 [16] = test: as above
Summary of the method: as §1

HABS [17] = test: as above
Summary of the method: as §1

HGGX39 [18] = test: as above
Summary of the method: as §1

HGGX6 [19] = test: as above
Summary of the method: as §1

SUDIPGIV [20] = test: as above
Summary of the method: as §1

SUDIPGVI [21] = test: as above
Summary of the method: as §1

SUDIPGXIII [22] = test: as above
Summary of the method: as §1

SUDIPGXIX [23] = test: as above
Summary of the method: as §1

SUDIPGXVII [24] = test: as above
Summary of the method: as §1

DIPGX29 [25] = test: area under dose-response curve of % growth inhibition (log2 RLU vs DMSO / staurosporine), 1e-11 to 1e-4 M (% x log10 M); higher = more growth inhibition
Summary of the method: (§2)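 Area under the curve was derived with the trapezoid rule from a fitted log-logistic curve, switching to a smoothing spline if the sigmoid fit failed. It rested on per-plate % activity between solvent and positive controls, calculated from log2-transformed CellTiter-Glo luminescence after 7 days of exposure (3 days for iAstro) at 37 °C, 5% CO2. Patient-derived pHGG/DIPG lines and astrocytes on 1% Geltrex-coated 384-well plates received a 10-point threefold dilution series, mean top concentration 35 μM, in triplicate.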

DIPGX37 [26] = test: as above
Summary of the method: as §2

DIPGX7 [27] = test: as above
Summary of the method: as §2

DIPGX9 [28] = test: as above
Summary of the method: as §2

HABS [29] = test: as above
Summary of the method: as §2

HGGX2 [30] = paediatric high-grade glioma line; test: as above
Summary of the method: as §2

HGGX39 [31] = test: as above
Summary of the method: as §2

HGGX42 [32] = H3.3 G34R paediatric high-grade glioma line; test: as above
Summary of the method: as §2

HGGX6 [33] = test: as above
Summary of the method: as §2

SUDIPGIV [34] = test: as above
Summary of the method: as §2

SUDIPGVI [35] = test: as above
Summary of the method: as §2

SUDIPGXIII [36] = test: as above
Summary of the method: as §2

SUDIPGXIX [37] = test: as above
Summary of the method: as §2

SUDIPGXVII [38] = test: as above
Summary of the method: as §2

SUDIPGXXI = diffuse intrinsic pontine glioma line; test: as above
Summary of the method: as §2

iAstro [39] = astrocyte control; test: as above
Summary of the method: as §2

HGGX2 [40] = test: EC50 (inflection of fitted growth-inhibition curve) (log10 M)
Summary of the method: as §1

HGGX42 [41] = test: as above
Summary of the method: as §1

HGGX2 [42] = test: maximal growth inhibition (yFin) relative to DMSO / staurosporine; higher = more efficacious
Summary of the method: as §1

HGGX42 [43] = test: as above
Summary of the method: as §1

iAstro [44] = test: EC50 (inflection of fitted growth-inhibition curve) (log10 M)
Summary of the method: as §1

iAstro [45] = test: maximal growth inhibition (yFin) relative to DMSO / staurosporine; higher = more efficacious
Summary of the method: as §1

## CC(C)c1cc(-c2n[nH]c(=O)n2-c2ccc3c(ccn3C)c2)c(O)cc1O [GANETESPIB]
DIPGX29 [1]
  EC50 (log10 M): -7.76
DIPGX37 [2]
  EC50 (log10 M): -7.76
DIPGX7 [3]
  EC50 (log10 M): -6.1
DIPGX9 [4]
  EC50 (log10 M): -7.98
HABS [5]
  EC50 (log10 M): -7.9
HGGX39 [6]
  EC50 (log10 M): -7.51
HGGX6 [7]
  EC50 (log10 M): -7.85
SUDIPGIV [8]
  EC50 (log10 M): -8.08
SUDIPGVI [9]
  EC50 (log10 M): -7.86
SUDIPGXIII [10]
  EC50 (log10 M): -7.84
SUDIPGXIX [11]
  EC50 (log10 M): -8.72
SUDIPGXVII [12]
  EC50 (log10 M): -7.92
DIPGX29 [13]
  maximal growth inhibition: 51.8%
DIPGX37 [14]
  maximal growth inhibition: 81.5%
DIPGX7 [15]
  maximal growth inhibition: 44.1%
DIPGX9 [16]
  maximal growth inhibition: 114%
HABS [17]
  maximal growth inhibition: 84.5%
HGGX39 [18]
  maximal growth inhibition: 77.3%
HGGX6 [19]
  maximal growth inhibition: 39.8%
SUDIPGIV [20]
  maximal growth inhibition: 58.4%
SUDIPGVI [21]
  maximal growth inhibition: 41.2%
SUDIPGXIII [22]
  maximal growth inhibition: 56%
SUDIPGXIX [23]
  maximal growth inhibition: 87.3%
SUDIPGXVII [24]
  maximal growth inhibition: 61.6%
DIPGX29 [25]
  area under dose-response curve: 195
DIPGX37 [26]
  area under dose-response curve: 306
DIPGX7 [27]
  area under dose-response curve: 106
DIPGX9 [28]
  area under dose-response curve: 440
HABS [29]
  area under dose-response curve: 329
HGGX2 [30]
  area under dose-response curve: 257
HGGX39 [31]
  area under dose-response curve: 271
HGGX42 [32]
  area under dose-response curve: 226
HGGX6 [33]
  area under dose-response curve: 153
SUDIPGIV [34]
  area under dose-response curve: 238
SUDIPGVI [35]
  area under dose-response curve: 158
SUDIPGXIII [36]
  area under dose-response curve: 215
SUDIPGXIX [37]
  area under dose-response curve: 395
SUDIPGXVII [38]
  area under dose-response curve: 242
SUDIPGXXI
  area under dose-response curve: 432
iAstro [39]
  area under dose-response curve: 164

## N#CN=C(NCCCCCCOc1ccc(Cl)cc1)Nc1ccncc1 [GMX-1778]
DIPGX37 [2]
  EC50 (log10 M): -8.03
DIPGX7 [3]
  EC50 (log10 M): -7.31
DIPGX9 [4]
  EC50 (log10 M): -8.21
HABS [5]
  EC50 (log10 M): -7.62
HGGX2 [40]
  EC50 (log10 M): -8.25
HGGX39 [6]
  EC50 (log10 M): -7.85
HGGX42 [41]
  EC50 (log10 M): -7.48
HGGX6 [7]
  EC50 (log10 M): -7.85
SUDIPGIV [8]
  EC50 (log10 M): -7.21
SUDIPGVI [9]
  EC50 (log10 M): -7.79
SUDIPGXIII [10]
  EC50 (log10 M): -7.54
SUDIPGXIX [11]
  EC50 (log10 M): -7.5
SUDIPGXVII [12]
  EC50 (log10 M): -7.44
DIPGX37 [14]
  maximal growth inhibition: 77.2%
DIPGX7 [15]
  maximal growth inhibition: 114%
DIPGX9 [16]
  maximal growth inhibition: 63.3%
HABS [17]
  maximal growth inhibition: 76%
HGGX2 [42]
  maximal growth inhibition: 103%
HGGX39 [18]
  maximal growth inhibition: 74.6%
HGGX42 [43]
  maximal growth inhibition: 90.6%
HGGX6 [19]
  maximal growth inhibition: 74.7%
SUDIPGIV [20]
  maximal growth inhibition: 104%
SUDIPGVI [21]
  maximal growth inhibition: 93.6%
SUDIPGXIII [22]
  maximal growth inhibition: 94.5%
SUDIPGXIX [23]
  maximal growth inhibition: 127%
SUDIPGXVII [24]
  maximal growth inhibition: 71.3%
DIPGX29 [25]
  area under dose-response curve: 465
DIPGX37 [26]
  area under dose-response curve: 311
DIPGX7 [27]
  area under dose-response curve: 380
DIPGX9 [28]
  area under dose-response curve: 267
HABS [29]
  area under dose-response curve: 275
HGGX2 [30]
  area under dose-response curve: 426
HGGX39 [31]
  area under dose-response curve: 287
HGGX42 [32]
  area under dose-response curve: 315
HGGX6 [33]
  area under dose-response curve: 288
SUDIPGIV [34]
  area under dose-response curve: 333
SUDIPGVI [35]
  area under dose-response curve: 354
SUDIPGXIII [36]
  area under dose-response curve: 335
SUDIPGXIX [37]
  area under dose-response curve: 444
SUDIPGXVII [38]
  area under dose-response curve: 245
SUDIPGXXI
  area under dose-response curve: 587
iAstro [39]
  area under dose-response curve: 314

## CC[C@]1(O)C[C@H]2CN(CCc3c([nH]c4ccccc34)[C@@](C(=O)OC)(c3cc4c(cc3OC)N(C=O)[C@H]3[C@@](O)(C(=O)OC)[C@H](OC(C)=O)[C@]5(CC)C=CCN6CC[C@]43[C@@H]65)C2)C1 [VINCRISTINE]
DIPGX7 [3]
  EC50 (log10 M): -5.71
HGGX2 [40]
  EC50 (log10 M): -7.75
HGGX42 [41]
  EC50 (log10 M): -4.84
SUDIPGIV [8]
  EC50 (log10 M): -6.56
SUDIPGVI [9]
  EC50 (log10 M): -7.28
SUDIPGXIII [10]
  EC50 (log10 M): -5.77
SUDIPGXIX [11]
  EC50 (log10 M): -6.46
iAstro [44]
  EC50 (log10 M): -5.97
DIPGX7 [15]
  maximal growth inhibition: 95.3%
HGGX2 [42]
  maximal growth inhibition: 92.8%
HGGX42 [43]
  maximal growth inhibition: 97.3%
SUDIPGIV [20]
  maximal growth inhibition: 101%
SUDIPGVI [21]
  maximal growth inhibition: 77.9%
SUDIPGXIII [22]
  maximal growth inhibition: 64%
SUDIPGXIX [23]
  maximal growth inhibition: 98.2%
iAstro [45]
  maximal growth inhibition: 61.4%
DIPGX29 [25]
  area under dose-response curve: 163
DIPGX37 [26]
  area under dose-response curve: 189
DIPGX7 [27]
  area under dose-response curve: 212
DIPGX9 [28]
  area under dose-response curve: 292
HABS [29]
  area under dose-response curve: 200
HGGX2 [30]
  area under dose-response curve: 345
HGGX39 [31]
  area under dose-response curve: 152
HGGX42 [32]
  area under dose-response curve: 103
HGGX6 [33]
  area under dose-response curve: 99.2
SUDIPGIV [34]
  area under dose-response curve: 284
SUDIPGVI [35]
  area under dose-response curve: 256
SUDIPGXIII [36]
  area under dose-response curve: 123
SUDIPGXIX [37]
  area under dose-response curve: 253
SUDIPGXVII [38]
  area under dose-response curve: 187
SUDIPGXXI
  area under dose-response curve: 606
iAstro [39]
  area under dose-response curve: 127
